In patent publication US9700633B2, “Conjugates of water soluble polymer-amino acid oligopeptide-drug, preparation method and use thereof” (JENKEM TECHNOLOGY CO. LTD., TIANJIN BRANCH, priority 2013, dated 2017):
“And” between values parts separate entries of the source, which are not always exact repeats. Equal entries are not always repeated. Structures can show the parent of a compound that is named as a salt. Where two headings read alike, the source gives them in different places. Marks after values point to notes of the source that are not given here.

What was measured:
[1] = test system: human colon cancer SW-620; experiment: Xenografted tumor of human colon cancer SW-620 in nude mice; settings: 45 mg/kg, qw × 3w, iv
[2] = test system: human ovarian cancer SKOV-3; experiment: Xenografted tumor of human ovarian cancer SKOV-3 in nude mice; assay type: in vivo, BALB/cA nude mice; settings: iv; for number of animals with vanished tumor: d28, 6 mice per group
[3] = test system: human colon cancer HT-29; experiment: Xenografted tumor of human colon cancer HT-29 in nude mice; assay type: in vivo, BALB/cA nude mice; settings: iv
[4] = test system: human lung cancer A549; experiment: Xenografted tumor of human lung cancer A549 in nude mice; assay type: in vivo, BALB/cA nude mice; settings: iv
[5] = test system: human colon cancer HCT-116; experiment: Xenografted tumor of human colon cancer HCT-116 in nude mice; assay type: in vivo, BALB/cA nude mice; settings: iv
Procedure: The diameter of subcutaneously xenografted tumor of the nude mice was measured by the caliper.

[6] = test system: K562 human chronic myelogenous leukemia; experiment: Subcutaneous tumor model of K562 human chronic myelogenous leukemia; assay type: in vivo, NOD/SCID mice; settings: 5 mg/kg; for Relative tumor volume (x ± SE) / Tumor volume (x ± SE): intravenous twice a week
Procedure: K562 cells were subcutaneously inoculated at the back of NOD/SCID mice right side so as to establish a subcutaneous xenograft animal model of human chronic myelogenous leukemia. When the average tumor volume reached 130 mm^3, the experiment mice were divided to different groups, with 8 mice for each group, and the drugs were administrated by intravenous injections twice a week. The effect was evaluated based on relative tumor proliferation ratio (T/C %).
Tumor cells were routinely passaged twice a week. Tumor cells in exponential growth phase were collected, then suspended in a mixture of PBS: matrigel with equal volume ratio and placed on ice for tumor inoculation.
5×10^6 K562 cells were subcutaneously inoculated at the back of experiment mice right side. The mice were monitored at regular intervals for the tumor growth. When tumor grew to average 130 mm^3, the mice were divided to groups randomly according to tumor volume and mouse body weight, and were administrated.
(§1) All of the operations relevant to operation, nursing and treatment in this investigation were conducted according to guidelines approved by Association for Assessment and Accreditation of Laboratory Animal Care (AAALAC). After the incoluation, the incidence of disease and death of animals were observed every day. In the process of daily observation, the effects of tumor growth on normal behavior of animals (such as exercise, feeding, drinking, body weight change, eyes, hair) as well as any other abnormality were attentively monitored. Death and clinical symptom were recorded for animals in each group.
The calculation formula for tumor volume is as follows: tumor volume (mm^3)=0.5×(long diameter of the tumor×short diameter of the tumor^2). RTV and T/C ratios were calculated according to the tumor volumes of the treatment groups and the control group. RTV refers to relative tumor volume. T/C ratio refers to the percentage value of the average tumor volumes between the treatment groups and the control group at a time point after the treatment, which reflects the anti-tumor effects of different treatment groups.
All the experiment results were expressed as the average tumor volume±SE (standard error). For statistical analysis, since the variances of relative tumor volume data were different, one-way analysis of variance (one-way ANOVA) and Dunnett T3 method for multiple comparisons were used to compare significant difference of relative tumor volumes between the groups. p<0.05 indicated the significant difference.

[7] = test system: PC-3 human prostate cancer; experiment: Subcutaneous tumor model of PC-3 human prostate cancer; assay type: in vivo, Balb/c nude mouse; settings: 10 mg/kg
Procedure: PC-3 cells were subcutaneously inoculated at the right side on the back of Balb/c nude mouse so as to establish a subcutaneous xenograft animal model of human prostate cancer. When the average tumor volume reached 160 mm^3, the experiment mice were divided to different groups, with 8 mice for each group, and the drugs were administrated by intravenous injections twice a week. The therapeutic effect was evaluated based on relative tumor proliferation ratio (T/C %).
PC-3 cell line was cultured in vitro in Ham's F12K medium with supplement of 10% fetal calf serum and L-glutamine (2 mM) at 37° C. in an atmosphere with 5% CO2 for the tumor cells culture. The tumor cells were routinely passaged twice a week. Tumor cells in exponential growth phase were collected, then were suspended in a mixture of PBS: matrigel with equal volume ratio and were placed on ice for tumor inoculation.
5×10^6 PC-3 cells were subcutaneously inoculated at the right side on the back of experiment mice. The mice were monitored at regular intervals for the tumor growth. When tumor grew to average 160 mm^3, the mice were divided to groups randomly according to the tumor volume and the mouse body weight, and were administrated.
as §1
The calculation formula for tumor volume is as follows: tumor volume (mm^3)=0.5×(long diameter of the tumor×short diameter of the tumor^2). RTV and T/C ratios were calculated according to the tumor volumes of the treatment groups and the control group. RTV refers to relative tumor volume. T/C ratio refers to the percentage value of the relative tumor volumes of the treatment groups and the control group at a time point after the treatment, which reflects the anti-tumor effects of different treatment groups. At the end of the experiment, the pictures of the tumors were recorded according to the following two methods: 1. after euthanatized by CO2, the animals in each group were placed with tumor-bearing side up, and the pictures were taken and recorded respectively for each group; 2. after the tumor was removed, the tumor weight was weighed first. T/C (percentage value of the tumor weight between the treatment group and the control group) was calculated, and then the tumors from each group were placed in order. The pictures of the tumors were taken and recorded.
All the experiment results were expressed as average tumor volume±SE (standard error). For statistical analysis, one-way analysis of variance (one-way ANOVA) and LSD multiple comparisons method were used for the relative tumor volume data, comparing the significant difference of the relative tumor volumes between the groups. p<0.05 indicates the significant difference.

[8] = test system: human liver cancer plc/prf/5; settings: 10 mg/kg (based on rapamycin), i.v., Q2W × 2W
[9] = In vitro degradation assay in 0.01 M PBS buffer solution; assay type: physicochemical
Procedure: In order to determine the degradation of the compounds in PBS buffer solution, the compounds DSR1˜6 were dissolved in 0.01 M PBS buffer solution, and were sampled every 30 min.

[10] = 14th day after the grouping, compared with the solvent control group
[11] = 22nd day after grouping, compared with the solvent control group
[12] = intravenous twice a week, 22nd day after grouping
[13] = intravenous twice a week, 25th day after grouping
[14] = day 24 after the inoculation (grouping)

## conjugate of methoxy PEG dipeptide of glutamic acid and glycine (number-average molecular weight of 20,000)-irinotecan [YNR-1]
[1]
  RTV (mean ± SD): 0.003 ± 0.002**^,#
  T/C: 0.02%
[1]; d0
  TV (mean ± SD) d0: 130 ± 43 mm^3
[1]; d28
  TV (mean ± SD) d28: 0.37 ± 0.29 mm^3
[1]; d28, 6 mice per group
  number of animals with vanished tumor: 2
[2]; 45 mg/kg, qw × 3w
  RTV (mean ± SD): 0.07 ± 0.01*^,#
  T/C: 0.53%
  TV (mean ± SD) d0: 135 ± 35 mm^3
  TV (mean ± SD) d28: 1.27 ± 1.98 mm^3
  number of animals with vanished tumor: 4
[3]; 45 mg/kg, qw × 3w
  RTV (mean ± SD): 5.71 ± 1.21
  T/C: 41.08%
  TV (mean ± SD) d0: 115 ± 25 mm^3
[3]; 45 mg/kg, qw × 3w, d28
  TV (mean ± SD) d28: 642 ± 105 mm^3
[4]; 45 mg/kg, qw × 3w
  RTV (mean ± SD): 2.97 ± 1.04*^,#
  T/C: 20.62%
  TV (mean ± SD) d0: 105 ± 21 mm^3
  TV (mean ± SD) d28: 320 ± 154 mm^3
[5]; 45 mg/kg, qw × 3w
  RTV (mean ± SD): 1.78 ± 0.23**^,##
  T/C: 27.60%
  TV (mean ± SD) d0: 132 ± 30 mm^3
  TV (mean ± SD) d28: 234 ± 54 mm^3

## Cc1nc(Nc2ncc(C(=O)Nc3c(C)cccc3Cl)s2)cc(N2CCN(CCO)CC2)n1 [dasatinib]
[6]; [10]
  T/C (relative tumor proliferation ratio): 12.4%
[6]; 14th day after the grouping
  Relative tumor volume (x ± SE): 226.9 ± 30.0
  Tumor volume (x ± SE): 311 mm^3 and 311 ± 55 mm^3
[6]; 21st day after grouping
  Relative tumor volume (x ± SE): 289.1 ± 46.9
  Tumor volume (x ± SE): 391 mm^3 and 391 ± 79 mm^3
[7]; [11]
  T/C (relative tumor proliferation ratio): 73%
[7]; [12]
  Relative tumor volume (x ± SE): 1148.9 ± 112.7
[7]; [13]
  Relative tumor volume (x ± SE): 1235.3 ± 119.6

## conjugate of methoxy PEG (20K) dipeptide of glutamic acid glycine-rapamycin [LPR-2]
[8]
  Delayed days of tumor growth (to 1000 mm^3): >7 days
[8]; [14]
  Tumor volume (average ± standard error): 353 ± 54 mm^3
[8]; day 27 after the inoculation
  Tumor volume (average ± standard error): 404 ± 89 mm^3
[8]; day 31 after the inoculation
  Tumor volume (average ± standard error): 391 ± 72 mm^3
[8]; day 34 after the inoculation
  Tumor volume (average ± standard error): 456 ± 77 mm^3
[8]; day 38 after the inoculation
  Tumor volume (average ± standard error): 536 ± 77 mm^3

## conjugate of methoxy PEG dipeptide of glutamic acid alanine (20K)-dasatinib [DSR-3]
[9]; at 150 min
  degradation: 50%

## conjugate of methoxy PEG dipeptide of glutamic acid and glycine (20K)-dasatinib [DSR-2]
[9]; at 90 min
  degradation: 50%

## conjugate of methoxy PEG dipeptide acid of glutamic acid (20K)-dasatinib [DSR-1]
[9]; at 60 min
  degradation: 60%

## conjugate of methoxy PEG glutamic acid dipeptide valine (20K)-dasatinib [DSR-4]
[6]; [10]
  T/C (relative tumor proliferation ratio): 1.6%
[6]; 21st day after grouping, compared with the dasatinib group
  T/C (relative tumor proliferation ratio): 45%
[6]; 14th day after the grouping
  Relative tumor volume (x ± SE): 29.1 ± 4.8
  Tumor volume (x ± SE): 39.2 mm^3 and 39.2 ± 6 mm^3
[6]; 21st day after grouping
  Relative tumor volume (x ± SE): 130 ± 28
  Tumor volume (x ± SE): 176 mm^3 and 176 ± 59 mm^3
[9]; at 240 min
  degradation: 20%
[7]; [11]
  T/C (relative tumor proliferation ratio): 47%
[7]; 25th day after grouping, compared with the dasatinib group
  T/C (relative tumor proliferation ratio): 61%
[7]; [12]
  Relative tumor volume (x ± SE): 745.9 ± 54.4
  Tumor volume (x ± SE): 1187 mm^3 and 1187 ± 67 mm^3
[7]; [13]
  Relative tumor volume (x ± SE): 751.9 ± 78.9

## conjugate of Y shape PEG dipeptide of glutamic acid and glycine (number-average molecular weight of 40,000)-rapamycin [LPR-3]
[8]
  Delayed days of tumor growth (to 1000 mm^3): >7 days
[8]; compared with the solvent group, day 38 after the inoculation
  Tumor proliferation rates T/C: 47%
[8]; [14]
  Tumor volume (average ± standard error): 358 ± 62 mm^3
[8]; day 27 after the inoculation
  Tumor volume (average ± standard error): 455 ± 85 mm^3
[8]; day 31 after the inoculation
  Tumor volume (average ± standard error): 569 ± 100 mm^3
[8]; day 34 after the inoculation
  Tumor volume (average ± standard error): 754 ± 151 mm^3
[8]; day 38 after the inoculation
  Tumor volume (average ± standard error): 848 ± 178 mm^3

## CCc1c2c(nc3ccc(OC(=O)N4CCC(N5CCCCC5)CC4)cc13)-c1cc3c(c(=O)n1C2)COC(=O)[C@]3(O)CC [CPT-11, irinotecan hydrochloride]
[2]; 15 mg/kg, q3w × 3w
  Body weight, Beginning: 18.9 g
  Body weight, End: 18.0 g
  RTV (mean ± SD): 7.39 ± 5.22**^,
  T/C: 55.69%
  TV (mean ± SD) d0: 137 ± 33 mm^3
  TV (mean ± SD) d28: 924 ± 443 mm^3
  number of animals with vanished tumor: 0
[2]; 45 mg/kg, qw × 3w
  Body weight, Beginning: 19.7 g
  RTV (mean ± SD): 12.80 ± 3.91
  T/C: 96.46%
  TV (mean ± SD) d0: 136 ± 44 mm^3
  TV (mean ± SD) d28: 1753 ± 878 mm^3
  number of animals with vanished tumor: 0
[3]; 15 mg/kg, q3w × 3w
  Body weight, Beginning: 18.2 g
  Body weight, End: 16.0 g
  RTV (mean ± SD): 3.79 ± 1.21*^,
  T/C: 27.27%
  TV (mean ± SD) d0: 121 ± 14 mm^3
[3]; 45 mg/kg, qw × 3w
  Body weight, Beginning: 18.6 g
  Body weight, End: 16.2 g
  RTV (mean ± SD): 8.69 ± 3.43
  T/C: 62.52%
  TV (mean ± SD) d0: 116 ± 13 mm^3
[4]; 15 mg/kg, q3w × 3w
  Body weight, Beginning: 18.1 g
  RTV (mean ± SD): 7.67 ± 2.88**^,
  T/C: 53.26%
  TV (mean ± SD) d0: 112 ± 21 mm^3
  TV (mean ± SD) d28: 831 ± 305 mm^3
[4]; 45 mg/kg, qw × 3w
  RTV (mean ± SD): 9.87 ± 4.87
  T/C: 68.54%
  TV (mean ± SD) d0: 110 ± 15 mm^3
[5]; 15 mg/kg, q3w × 3w
  Body weight, End: 16.6 g
  RTV (mean ± SD): 2.57 ± 0.66
  T/C: 39.84%
  TV (mean ± SD) d0: 129 ± 26 mm^3
  TV (mean ± SD) d28: 322 ± 37 mm^3
[5]; 45 mg/kg, qw × 3w
  Body weight, End: 15.1 g
  RTV (mean ± SD): 4.10 ± 0.73
  T/C: 63.56%
  TV (mean ± SD) d0: 126 ± 25 mm^3
  TV (mean ± SD) d28: 512 ± 99 mm^3
